Reference: US6300331A, “Naphthalimidobenzamide derivatives” (Taiho Pharmaceutical Co., Ltd., priority 1998, dated 2001)
Structures can show the parent of a compound that is named as a salt.

System: KB cells
Experiment: Cytotoxicity against KB cells (crystal violet dying method)
Format: cell-based
Conditions: Homo sapiens; KB cells, 72 hours, 50% proliferation inhibition; read-out: Cytotoxicity [IC50 (μM)]
Experimental: Test 1 Cytotoxicity against KB cells
The residue was re-suspended in an MEM medium containing 10% fetal bovine serum. Then, an equivalent amount of a 0.2% trypan blue solution was added to a portion of the cell suspension, followed by mixing. The number of living cells which had not been dyed with the trypan blue was counted by a hemocytometer and the suspension was diluted and adjusted with the above-described culture medium to give a cell concentration of 1×10^4 cells/ml. Each well of a 96-well plate was inoculated with a 100-μl portion of the resulting suspension, in other words, was inoculated to give a concentration of 1×10^3 cells/well.
To the cells cultured in a CO2 incubator for 24 hours after the inoculation was added 100 μl/well of a medicament solution, followed by culturing for 72 hours. To a control was added 100 μl of an MEM medium.
The cytotoxicity of the medicament was determined from a change in the number of the cells by using the crystal violet dying method.
After washing the plate with water, 100 μl/well of a 0.05% crystal violet solution dissolved in 20% methanol was added to dye the cells therewith for about 15 minutes. The plate was washed to remove the unbound crystal violet, followed by the addition of 100 μl/well of 0.05M NaH2 PO4 /ethanol (1:1 v/v), whereby the crystal violet bound to the cellular protein was extracted.

SMILES | IC50
O=C(NCCNCCNC(=O)c1ccnc2ccccc12)c1cc(C(=O)NCCNCCN2C(=O)c3cccc4cc([N+](=O)[O-])cc(c34)C2=O)cc(N2C(=O)c3cccc4cc([N+](=O)[O-])cc(c34)C2=O)c1 [Example 14, 1-(3-nitro-1,8-naphthalimido)-3-[N-[2-[[2-(3-nitro-1,8-naphthalimido)ethyl]amino]ethyl]carbamoyl]-5-[N-[2-[[2-(quinoline-4-carbonylamino)ethyl]amino]ethyl]carbamoyl]benzene trihydrochloride] | 1.3 µM
O=C(NCCNCCNC(=O)c1cnc2ccccc2n1)c1cc(C(=O)NCCNCCN2C(=O)c3cccc4cc([N+](=O)[O-])cc(c34)C2=O)cc(N2C(=O)c3cccc4cc([N+](=O)[O-])cc(c34)C2=O)c1 [Example 15, 1-(3-nitro-1,8-naphthalimido)-3-[N-[2-[[2-(3-nitro-1,8-naphthalimido)ethyl]amino]ethyl]carbamoyl]-5-[N-[2-[[2-(quinoxaline-2-carbonylamino)ethyl]amino]ethyl]carbamoyl]benzene trihydrochloride] | 0.21 µM
O=C(NCCCNCCCN1C(=O)c2cccc3cc([N+](=O)[O-])cc(c23)C1=O)c1cc(C(=O)NCCCNCCCN2C(=O)c3cccc4cc([N+](=O)[O-])cc(c34)C2=O)cc(N2C(=O)c3cccc4cc([N+](=O)[O-])cc(c34)C2=O)c1 [Example 11, 1,3-bis[N-[3-[[3-(3-nitro-1,8-naphthalimido)propyl]amino]propyl]carbamoyl]-5-(3-nitro-1,8-naphthalimido)benzene dihydrochloride] | 0.14 µM
O=C(NCCNCCN1C(=O)c2cccc3c(Cl)ccc(c23)C1=O)c1cc(C(=O)NCCNCCN2C(=O)c3cccc4c(Cl)ccc(c34)C2=O)cc(N2C(=O)c3cccc4cc([N+](=O)[O-])cc(c34)C2=O)c1 [Example 8, 1,3-bis[N-[2-[[2-(4-chloro-1,8-naphthalimido)ethyl]amino]ethyl]carbamoyl]-5-(3-nitro-1,8-naphthalimido)benzene dihydrochloride] | 0.05 µM
CN1CCN(C(=O)c2cc(C(=O)NCCNCCCN3C(=O)c4cccc5cc([N+](=O)[O-])cc(c45)C3=O)cc(N3C(=O)c4cccc5cc([N+](=O)[O-])cc(c45)C3=O)c2)CC1 [Example 56 (B), 1-(4-methylpiperazino)carbonyl-3-(3-nitro-1,8-naphthalimido)-5-[N-[2-[[3-(3-nitro-1,8-naphthalimido)propyl]amino]ethyl]carbamoyl]benzene hydrochloride] | 0.12 µM
O=C(NCCNCCCN1C(=O)c2cccc3cc([N+](=O)[O-])cc(c23)C1=O)c1cccc(N2C(=O)c3cccc4cc([N+](=O)[O-])cc(c34)C2=O)c1 [Example 40 (A), 1-(3-nitro-1,8-naphthalimido)-3-[N-[2-[[3-(3-nitro-1,8-naphthalimido)propyl]amino]ethyl]carbamoyl]benzene hydrochloride] | 0.003 µM
O=C(NCCCNCCN1C(=O)c2cccc3cc([N+](=O)[O-])cc(c23)C1=O)c1cccc(N2C(=O)c3cccc4cc([N+](=O)[O-])cc(c34)C2=O)c1 [Example 40 (B), 1-(3-nitro-1,8-naphthalimido)-3-[N-[3-[[2-(3-nitro-1,8-naphthalimido)ethyl]amino]propyl]carbamoyl]benzene hydrochloride] | 0.00023 µM
O=C(NCCNCCN1C(=O)c2cc3ccccc3cc2C1=O)c1cc(C(=O)NCCNCCN2C(=O)c3cc4ccccc4cc3C2=O)cc(N2C(=O)c3cccc4cc([N+](=O)[O-])cc(c34)C2=O)c1 [Example 7, 1,3-bis[N-[2-[[2-(2,3-naphthalimido)ethyl]amino]ethyl]carbamoyl]-5-(3-nitro-1,8-naphthalimido)benzene dihydrochloride] | 4.1 µM
Cn1c(C(=O)NCCNCCNC(=O)c2cc(C(=O)NCCNCCN3C(=O)c4cccc5cc([N+](=O)[O-])cc(c45)C3=O)cc(N3C(=O)c4cccc5cc([N+](=O)[O-])cc(c45)C3=O)c2)cc2ccccc21 [Example 16, 1-(3-nitro-1,8-naphthalimido)-3-[N-[2-[[2-(3-nitro-1,8-naphthalimido)ethyl]amino]ethyl]carbamoyl]-5-[N-[2-[[2-(1-methylindole-2-carbonylamino)ethyl]amino]ethyl]carbamoyl]benzene dihydrochloride] | 6.6 µM
CN(C)CCCNC(=O)c1cc(NC(=O)CCCNC(=O)c2cc(C(=O)NCCNCCN3C(=O)c4cccc5cc([N+](=O)[O-])cc(c45)C3=O)cc(N3C(=O)c4cccc5cc([N+](=O)[O-])cc(c45)C3=O)c2)cn1C [Example 34, 1-[N-[3-[N-[2-[N-(3-dimethylaminopropyl)carbamoyl]-1-methylpyrrol-4-yl]carbamoyl]propyl]carbamoyl]-3-(3-nitro-1,8-naphthalimido)-5-[N-[2-[[2-(3-nitro-1,8-naphthalimido)ethyl]amino]ethyl]carbamoyl]benzene dihydrochloride] | 4.7 µM
O=C(NCCNCCN1C(=O)c2cccc3cccc(c23)C1=O)c1cc(C(=O)NCCNCCN2C(=O)c3cccc4cccc(c34)C2=O)cc(N2C(=O)c3cccc4cc([N+](=O)[O-])cc(c34)C2=O)c1 [Example 6, 1,3-bis[N-[2-[[2-(1,8-naphthalimido)ethyl]amino]ethyl]carbamoyl]-5-(3-nitro-1,8-naphthalimido)benzene and dihydrochloride thereof] | 0.064 µM
O=C(NCCNCCN1C(=O)c2cccc3cc([N+](=O)[O-])cc(c23)C1=O)c1cccc(N2C(=O)c3cccc4cc([N+](=O)[O-])cc(c34)C2=O)c1 [Example 39, 1-(3-nitro-1,8-naphthalimido)-3-[N-[2-[[2-(3-nitro-1,8-naphthalimido)ethyl]amino]ethyl]carbamoyl]benzene hydrochloride] | 0.0053 µM
O=C(NCCNCCN1C(=O)c2cccc3c(Cl)ccc(c23)C1=O)c1cc(C(=O)NCCNCCN2C(=O)c3cccc4c(Cl)ccc(c34)C2=O)cc(N2C(=O)c3cccc4cccc(c34)C2=O)c1 [Example 9, 1,3-bis[N-[2-[[2-(4-chloro-1,8-naphthalimido)ethyl]amino]ethyl]carbamoyl]-5-(1,8-naphthalimido)benzene dihydrochloride] | 0.023 µM
CCN1CCN(C(=O)c2cc(C(=O)NCCNCCN3C(=O)c4cccc5cccc(c45)C3=O)cc(N3C(=O)c4cccc5cc([N+](=O)[O-])cc(c45)C3=O)c2)CC1 [Example 53, 1-(4-ethylpiperazino)carbonyl-3-[N-[2-[[2-(1,8-naphthalimido)ethyl]amino]ethyl]carbamoyl]-5-(3-nitro-1,8-naphthalimido)benzene hydrochloride] | 0.013 µM
CN(C)CCNC(=O)c1cc(C(=O)NCCNCCN2C(=O)c3cccc4cc([N+](=O)[O-])cc(c34)C2=O)cc(N2C(=O)c3cccc4cc([N+](=O)[O-])cc(c34)C2=O)c1 [Example 42, 1-[N-(2-dimethylaminoethyl)carbamoyl]-3-(3-nitro-1,8-naphthalimido)-5-[N-[2-[[2-(3-nitro-1,8-naphthalimido)ethyl]amino]ethyl]carbamoyl]benzene hydrochloride] | 0.15 µM
O=C(NCCNCCN1C(=O)c2cccc3cccc(c23)C1=O)c1cc(C(=O)NCCN2CCCCC2)cc(N2C(=O)c3cccc4cc([N+](=O)[O-])cc(c34)C2=O)c1 [Example 47, 1-[N-[2-[[2-(1,8-naphthalimido)ethyl]amino]ethyl]carbamoyl]-3-(3-nitro-1,8-naphthalimido)-5-[N-(2-piperidinoethyl)carbamoyl]benzene hydrochloride] | 0.0035 µM
CN(C)CCCNC(=O)c1cc(NC(=O)CCNC(=O)c2cc(C(=O)NCCNCCN3C(=O)c4cccc5cc([N+](=O)[O-])cc(c45)C3=O)cc(N3C(=O)c4cccc5cc([N+](=O)[O-])cc(c45)C3=O)c2)cn1C [Example 33, 1-[N-[2-[N-[2-[N-(3-dimethylaminopropyl)carbamoyl]-1-methylpyrrol-4-yl]carbamoyl]ethyl]carbamoyl]-3-(3-nitro-1,8-naphthalimido)-5-[N-[2-[[2-(3-nitro-1,8-naphthalimido)ethyl]amino]ethyl]carbamoyl]benzene dihydrochloride] | 7.1 µM
O=C(NCCNCCN1C(=O)c2cccc3cc([N+](=O)[O-])cc(c23)C1=O)c1cc(C(=O)NCCN2CCCC2)cc(N2C(=O)c3cccc4cc([N+](=O)[O-])cc(c34)C2=O)c1 [Example 45, 1-(3-nitro-1,8-naphthalimido)-3-[N-[2-[[2-(3-nitro-1,8-naphthalimido)ethyl]amino]ethyl]carbamoyl]-5-[N-(2-pyrrolidinoethyl)carbamoyl]benzene hydrochloride] | 0.066 µM
CNC(=O)c1cc(C(=O)NCCNCCN2C(=O)c3cccc4cc([N+](=O)[O-])cc(c34)C2=O)cc(N2C(=O)c3cccc4cc([N+](=O)[O-])cc(c34)C2=O)c1 [Example 43, 1-methylcarbamoyl-3-(3-nitro-1,8-naphthalimido)-5-[N-[2-[[2-(3-nitro-1,8-naphthalimido)ethyl]amino]ethyl]carbamoyl]benzene hydrochloride] | 0.025 µM
O=C(NCCNCCN1C(=O)c2cccc3cccc(c23)C1=O)c1cc(C(=O)NCCNCCN2C(=O)c3cccc4cccc(c34)C2=O)cc(N2C(=O)c3cccc4cccc(c34)C2=O)c1 [Example 1, 1,3-bis[N-[2-[[2-(1,8-naphthalimido)ethyl]amino]ethyl]carbamoyl]-5-(1,8-naphthalimido) benzene dimethanesulfonate] | 0.059 µM
